Measured values from patent US20170189496A1, “USE OF PHOSPHORYLATION PATHWAY-RELATED FACTOR IN REGULATING FUNCTION OF REGULATORY T CELL” (Institut Pasteur of Shanghai, Chinese Academy of Sciences, priority 2012, published 2017).

How the values were obtained:
[1] = tested on: SZ4.03 lymphocyte cell line that highly expresses FOXP3; assay: Inflammatory cytokine induction of PIM1 expression in SZ4.03 cells (immunoblot); assay type: cell-based; settings: IL-6 20 ng/ml or IL-4 30 ng/ml; for PIM1 expression: 0 h, 1 h, 2 h, 4 h; for FOXP3 expression levels: 0-4 h
Procedure: SZ4.03 cells were treated with IL-6 (20 ng/ml) or IL-4 (30 ng/ml), respectively. After 0 h, 1 h, 2 h, and 4 h, cells were collected and lysed by boiling directly in SDS-Loading Buffer. Samples were then analyzed by immunoblot.
SZ4.03 cells (lymphocyte cell line that highly expresses FOXP3, kept in the present laboratory; also can be routinely obtained by one skilled in the art according to methods described in Reference 7) were cultured in 1640 culture medium containing 10% FBS, 100 units/ml penicillin-streptomycin, 100 units ml non-essential amino acids, and 100 units/ml sodium pyruvate, at 37° C. under 5% CO2.
After protein samples were subjected to SDS-PAGE, transferred to nitrocellulose membrane, sealed in TBST with 5% skim milk for 1 h, primary antibody was added and incubated for 1 h, then HRP-conjugated secondary antibody was added and incubated for 1 h, and results shown by exposure with ECL substrates.
SZ4.03 cells were treated with IL-6 (20 ng/ml) or IL-4 (30 ng/ml), respectively, for 0 h, 1 h, 2 h, and 4 h. Cells were collected and lysed by boiling directly in SDS sample buffer, and then samples were analyzed by immunoblot (primary antibodies are PIM1 antibody and FOXP3 antibody) (results shown in FIG. 2).

[2] = tested on: in vitro expanded natural regulatory T cells (nTreg); assay: PIM1 protein expression in in vitro expanded nTreg under inflammatory cytokine stimulation; assay type: cell-based
[3] = tested on: Jurkat cells stably expressing HA-FOXP3; assay: FOXP3 protein degradation induced by PMA/LPS in Jurkat cells stably expressing HA-FOXP3 (immunoblot); assay type: cell-based; settings: PMA 25 ng/ml + LPS 1 ng/ml, 24 h; kaempferol 50 μM, PIM1 inhibitor 100 nM, PI3K inhibitor 10 μg/ml; DMSO control
Procedure: HA-FOXP3-Jurkat stable expression cells were treated with PMA (25 ng/ml) and LPS (1 ng/ml). 50 μM kaempferol, 100 nM PIM1 inhibitors (specifically of 4-[3-(4-chlorophenyl)-2,1-benzisoxazol-5-yl]-2-pyrimidinamine), and 10 μg/ml PI3K inhibitor (LY294002) were added, and DMSO as a control. Cells were collected 24 h later. The levels of FOXP3 and GAPDH were detected directly by immunoblot.
Human embryonic kidney cell line HEK293 was co-transfected with FUGW-HA-FOXP3, del 8.9 and VSV-G. Cell culture supernatants were collected 48 h and 72 h after transfection. Viruses were purified by ultracentrifugation and used to infect Jurkat E6.1 to ultimately obtain Jurkat cell lines stably expressing HA-FOXP3.
Protein samples were subjected to SDS-PAGE, and then transferred to nitrocellulose membrane, which was then sealed in TBST containing 5% nonfat dry milk or 3% bovine serum albumin for 1 h. Primary antibody was added and incubated for 1 h and then HRP-conjugated secondary antibody was added and incubated for 1 h, and results shown by exposure with ECL substrates.
Jurkat cells stably expressing HA-FOXP3 were treated with PMA (25 ng/ml) and LPS (1 ng/ml). Each sample was added 50 μM kaempferol, 100 nM PIM1 inhibitor (i.e., 4-[3-(4-chlorophenyl)-2,1-benzisoxazol-5-yl]-2-pyrimidinamine), and 10 μg/ml PI3K inhibitor (LY294002). DMSO serves as a control. Cells were collected after 24 h.

[4] = tested on: human CD4+ CD25+ CD127low natural Treg (nTreg); assay: Flow cytometry of expanded nTreg treated with PIM1 inhibitor; assay type: cell-based; settings: 100 nM
Procedure: After removal of Beads, DMSO or PIM1 inhibitor (100 nM) was added and treated for 24 h, followed by APC-FOXP3 and PE-CD25 antibody staining for flow cytometry analysis.
After human CD4+ CD25+ CD127^low natural Treg (nTreg) were sorted by BD FACS Aria II flow sorter, and expanded through Bead-CD3/CD28 and IL-2 (500 U/ml). DMSO or PIM1 inhibitor (4-[3-(4-chlorophenyl)-2,1-benzisoxazol-5-yl]-2-pyrimidinamine, 100 nM) was added and treated for 24 h. and the cells were stained with APC-FOXP3 and PE-CD25 antibody for flow cytometry analysis (results shown in FIG. 5A). The expanded nTreg were rested for 24 h. DMSO or PIM1 inhibitor (100 nM) was then added and treated for 48 h, followed by staining with APC-FOXP3 and PE-CD25 antibody for flow cytometry analysis (results shown in FIG. 5B).

[5] = tested on: nTreg mixed with CFSE-labeled human PBMC; assay: nTreg immunosuppressive activity: proliferation of CFSE-labeled PBMC; assay type: cell-based; settings: Treg:PBMC 1:2 or 1:4; Bead-CD3/CD28; 5 days; vs DMSO-treated group
Procedure: The expanded nTreg were mixed with human CFSE-labeled PBMC (2×10^5 cells/well) in U-shaped wells of 96-well plate at corresponding proportion. 5000 T cell dynabeads conjugated with CD3/CD28 antibody were added. Cell proliferation levels were detected after two groups of cells treated with DMSO and PIM1 inhibitors, respectively, were incubated for five days.
Regulatory T cells were obtained from human peripheral blood mononuclear cells (purchased from Shanghai Blood Center) by antibody labeling and magnetic bead sorting. As mentioned above, after labeling effector T cells with 1 μM CFSE (Invitrogen), regulatory T cells and effector T cells were cultured for 80 h. Flow cytometry was used to detect fluorescence intensity changes in effector T cells, their proliferation status was analyzed.
The expanded nTreg were mixed with CFSE-labeled human PBMC (2×10^5 cells/well) at the corresponding ratio (i.e., PBMC only, Treg:PBMC=1:2 or 1:4, or Treg only) in 96-well U-shaped well. 5000 Bead-CD3/CD28 were added to each well. Two groups of cells were treated, respectively, with DMSO and PIM1 inhibitors, cultured for 5 days, followed by detection of cell proliferation levels (results shown in FIG. 6).

[6] = tested on: nTreg cells; assay: nTreg expansion, FACS detection of FOXP3 and CTLA4; assay type: cell-based, human; settings: 100 nM; IL-2 500 U/ml, CD3/CD28 dynabeads 3:1; two weeks; vs control group
Procedure: 500 U/ml of IL-2 was added to 2×10^5 nTreg cells. nTreg cells were expanded using CD3/CD28 T cell dynabeads and cells at 3:1 ratio. After two weeks, part of expanded nTreg cells were collected for FACS detection. Dynabeads were removed from the remaining cells. After 48 h of rest, FOXP3 and CTLA4 cells were collected again by flow cytometry. The working concentrations of Rapamycin and PIM1 inhibitors are both 100 nM.
500 U/ml of IL-2 was added to 2×10^5 nTreg cells. nTreg cells were expanded at a 3:1 ratio of CD3/CD28 T cell dynabeads and cells. After two weeks, part of the expanded nTreg cells were collected for FACS detection. Dynabeads were removed from the remaining cells and rested for 48 h. Cells were collected again for FACS detection of FOXP3 and CTLA4.

[7] = molecular target: T1, PIM1 (Homo sapiens, UniProt P11309); assay: PIM shRNA lentivirus in primary nTreg, mRNA by quantitative PCR; assay type: cell-based; parameters: SZ4.03 cells that highly expresses FOXP3 were infected with viral vectors carrying the negative control shRNA (shCK) and PIM1 shRNA (shPIM1); endogenous in cells; settings: primary nTreg cells; 1 week culture after lentivirus infection
Procedure: Primary nTreg cells were activated with 500 U/ml of IL-2 and CD3/CD28 T cell dynabeads and cells at 3:1 ratio for 4 h, and, respectively, infected with lentivirus encoding PIM1, PIM2, and PIM3 shRNA overnight. Continued incubation for one week, the mRNA levels of FOXP3 and its target gene CTLA4 were detected by quantitative PCR.
500 U/ml of IL-2 was added to 2×10^5 nTreg cells. Primary nTreg cells were activated at a 3:1 ratio of CD3/CD28 T cell dynabeads and cells for 4 h, followed by infection of lentiviruses encoding PIM1, PIM2, and PIM3 shRNA overnight. Cells were cultured for 1 week without removing dynabeads, and then the mRNAs level of FOXP3 and its target gene CTLA4 were detected (results shown in FIG. 12).
(§1) shPIM1 primer sequences were designed as follows:
After annealing, the synthesized shRNA primer sequences were ligated into shRNA lentiviral expression vector pLKO.1 (purchased from Addgene). After mixed at a ratio of pLKO.1:dR8.9:VSVG=5:4:3, they were transfected into HEK 293T cells by calcium phosphate method. Viruses were collected 48 h after transfection. Virus suspensions, after low-speed centrifugation and filtration, were used directly to infect target cells.

[8] = molecular target: T1, PIM1; assay: shPIM1 knockdown in SZ4.03 cells, mRNA of FOXP3 target genes by quantitative PCR; assay type: cell-based; parameters: SZ4.03 cells that highly expresses FOXP3 were infected with viral vectors carrying the negative control shRNA (shCK) and PIM1 shRNA (shPIM1); endogenous in cells; host or cells: SZ4.03 lymphocyte cell line; settings: vs control shCK
Procedure: After 4 h, total RNA was extracted and converted to cDNA. PIM1 mRNA expression levels were then analyzed by quantitative PCR.
as §1
After annealing, the synthesized shRNA primer sequences were ligated into lentiviral shRNA expression vector pLKO.1 (purchased from Addgene). After mixed at a ratio of pLKO.1:dR8.9:VSVG=5:4:3, HEK 293T cells were transfected with the mixture using calcium phosphate method. Viruses were collected 48 h after transfection. After low-speed centrifugation and filtration, virus suspension was used directly to infect target cells.
SZ4.03 cells that highly expresses FOXP3 were infected with viral vectors carrying the negative control shRNA (shCK) and PIM1 shRNA (shPIM1) packaged using lentiviral packaging system, followed by puromycin (50 ng/ml) selection and DMSO or PMA/inomycin (P/I) for 4 h. Total RNA was extracted and reverse transcribed to cDNA.

[9] = 24 h or 48 h, vs DMSO control group

T1 sequence (P11309 whole entry): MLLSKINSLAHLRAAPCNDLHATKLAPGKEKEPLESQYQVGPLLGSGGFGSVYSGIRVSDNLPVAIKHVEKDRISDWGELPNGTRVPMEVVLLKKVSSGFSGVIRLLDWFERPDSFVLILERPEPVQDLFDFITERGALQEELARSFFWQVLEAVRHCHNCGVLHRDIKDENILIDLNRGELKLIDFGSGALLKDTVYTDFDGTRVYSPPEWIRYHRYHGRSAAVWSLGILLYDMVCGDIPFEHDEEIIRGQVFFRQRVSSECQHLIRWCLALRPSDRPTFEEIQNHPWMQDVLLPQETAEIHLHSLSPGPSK

IL-6: inflammatory cytokine, purchased from Apotech
PIM1 expression [1]: gradually increases as treatment time increases | FOXP3 expression levels [1]: no significant difference | PIM1 protein expression levels [2]: rapidly up-regulate

Nc1nccc(-c2ccc3noc(-c4ccc(Cl)cc4)c3c2)n1 [PIM1 inhibitor, 4-[3-(4-chlorophenyl)-2,1-benzisoxazol-5-yl]-2-pyrimidinamine]
FOXP3 protein degradation [3]: can inhibit | FOXP3 expression levels [4]: positively regulate | CD25+ FOXP3+ Treg cell levels [4, 9]: significantly increase | CLTA4+ FOXP3+ Treg cell levels [4, 9]: significantly increase | PBMC proliferation [5]: inhibited more | FOXP3+ and CTLA4+ nTreg cell expansion [6]: promote

B1: shPIM1: PIM1 shRNA (SEQ ID NO: 3 and 4) in lentiviral vector pLKO.1 (nucleic acid)
sense: CCGGGATACTCTCTTCTTCTCATAGCTCGAGCTATGAGAAGAAGAGAGTATCTTTTT
antisense: AATTAAAAAGATACTCTCTTCTTCTCATAGCTCGAGCTATGAGAAGAAGAGAGTATC
mRNA levels of CTLA4 [7]: increase | mRNA expression levels of FOXP3-negatively regulated target gene IL-2 [8]: reduces | mRNA expression levels of FOXP3-positively regulated target gene CTLA4 [8]: enhances | mRNA expression levels of FOXP3-positively regulated target gene GITR [8]: enhances | mRNA expression levels of non-FOXP3 target gene STUB1 [8]: does not affect | mRNA expression levels of PIM1 ([8]; DMSO or PMA/inomycin 4 h): significantly reduce

B2: IL-4: inflammatory cytokine, purchased from Apotech (protein, UniProt P05112 25-153, looked up)
Interleukin-4: HKCDITLQEIIKTLNSLTEQKTLCTELTVTDIFAASKNTTEKETFCRAATVLRQFYSHHEKDTRCLGATAQQFHRHKQLIRFLKRLDRNLWGLAGLNSCPVKEANQSTLENFLERLKTIMREKYSKCSS
PIM1 expression [1]: gradually increases as treatment time increases | FOXP3 expression levels [1]: no significant difference | PIM1 protein expression levels [2]: rapidly up-regulate
